For data set [1], the system named is p53 level in HCT116^+/+ cells. Kind of data set: p53 induction by immunoblotting (IB) in HCT116^+/+ cells. The format is cell-based, human. The note with it: for p53 induction in HCT116^+/+ cells: 2 µM, 18 hrs, IB normalized to GAPDH, compared to 2 µM INZ. On the procedure:
(§1) EC90 values were calculated from the EC50 and Hill slope by a web-based calculator: http://www.graphpad.com/quickcalcs/Ecanything1.cfm.

In another data set the test system is p53 level in H460 cells. Kind of data set: p53 induction by immunoblotting (IB) in H460 cells. The class given is cell-based, human. The note with it: for p53 induction in H460 cells: 2 µM, 18 hrs, IB normalized to GAPDH, compared to 2 µM INZ. (In general: Immunoblotting shows a protein as a band on a membrane.)
The subject of data set [2] is p53 level in H460 and HCT116^+/+ cells. Kind of data set: p53 induction by immunoblotting (IB), statement does not separate the cell lines. The format is cell-based, human. The note with it: 18 hrs, 0.5, 2, 10 µM. An excerpt:
(A–B) Initial Inauhzin analogs were purchased and tested the activity on H460 and HCT116^+/+ by immunoblotting (IB). […]

Data set [3] relates to HCT116^−/− cells. Kind of data set: 3-day WST-8 cell growth inhibition assay, HCT116^−/− (p53 null). The class given is cell-based, human. The note with it: for EC50: Homo sapiens, HCT-116, 72 h WST-8, average of triplicates, highest concentration 100 µM; for effect on p53-null HCT116^−/− cells compared with p53-containing cells: in vitro cytotoxicity. A general note: Tetrazolium assays rely on reduction of a dye to a coloured formazan, in cell work by metabolically active cells.

For the next data set, the system named is H1299 cells. Kind of data set: 3-day WST-8 cell growth inhibition assay, H1299 (p53 null). The format is cell-based, human. The note with it: for EC90 / EC50: Homo sapiens; for EC90: NCI-H1299, calculated from EC50 and Hill slope; for EC50: NCI-H1299, 72 h WST-8, average of triplicates, highest concentration 100 µM; for effect on p53-null H1299 cells compared with p53-containing cells: in vitro cytotoxicity. On the procedure:
as §1

Data set [4] has as its system H460 cells. Kind of data set: 3-day WST-8 cell growth inhibition assay, H460. The format is cell-based, human. The note with it: for EC50: Homo sapiens, NCI-H460, 72 h WST-8, average of triplicates, highest concentration 50 µM, read-out: EC50, cell growth inhibition, H460 p53 wild type.
Data set [5] relates to H460 cells. The experiment in a line: 3-day WST-8 cell growth inhibition assay, H460. The format is cell-based, human. The note with it: for EC90: read-out: EC90, cell growth inhibition, H460 p53 wild type. On the procedure:
as §1

Another data set has as its system HCT116^+/+ cells. Kind of data set: 3-day WST-8 cell growth inhibition assay, HCT116^+/+. The format is cell-based, human. The note with it: for EC90: read-out: EC90, cell growth inhibition, HCT116^+/+ p53 wild type; for EC50: HCT-116, 72 h WST-8, average of triplicates, highest concentration 50 µM, read-out: EC50, cell growth inhibition, HCT116^+/+ p53 wild type. On the procedure:
as §1

For data set [6], the system named is HCT116^−/− cells. The experiment in a line: 3-day WST-8 cell growth inhibition assay, HCT116^−/− (p53 null). The class given is cell-based. The note with it: Homo sapiens, HCT-116, calculated from EC50 and Hill slope. Here is the method: as §1
The next data set concerns WI-38 cells. Kind of data set: WST-8 cytotoxicity assay on normal fibroblasts WI-38. The class given is cell-based, human. On the procedure:
as §1

The mark [7] stands for this setting: Homo sapiens, NCI-H460, calculated from EC50 and Hill slope (GraphPad web calculator).
Setting [8] is: Homo sapiens, HCT-116, calculated from EC50 and Hill slope.

Structures are written as SMILES. “And” between values parts separate entries of the source, which are not always exact repeats. Equal values may be shown once. “Also recorded” adds a separate entry of the source. Read-outs that look alike come from different tables or passages of the source.

Consider `CCC(Sc1nnc2c(n1)[nH]c1ccccc12)C(=O)N1c2ccccc2Sc2ccc(OC)cc21` (stereo not drawn) [Compound 7, 2-((5H-[1,2,4]triazino[5,6-b]indol-3-yl)thio)-1-(2-methoxy-10H-phenothiazin-10-yl)butan-1-one], for which the “p53 induction in HCT116^+/+ cells” value in data set [1] is recorded as under 50%. In the data set with p53 level in H460 cells, the “p53 induction in H460 cells” value is listed as under 50%. The “p53 induction / activation by synthetic analogs” value in data set [2] is recorded as “remained active in p53 induction”.
Regarding `CCC(Sc1nnc2c(n1)[nH]c1cc(C)ccc12)C(=O)N1c2ccccc2Sc2ccccc21` (stereo not drawn) [Compound 19, 2-((7-methyl-5H-[1,2,4]triazino[5,6-b]indol-3-yl)thio)-1-(10H-phenothiazin-10-yl)butan-1-one], the EC50 with HCT116^−/− cells [3] amounted to 44.2 ± 10.3 µM; in the data set on H1299 cells, 40.2 ± 7.4 µM; in the data set on H460 cells [4], 6 ± 0.6 µM; in the data set on HCT116^+/+ cells (Homo sapiens) it was 2.2 ± 0.2 µM. Also, the “effect on p53-null HCT116^−/− cells compared with p53-containing cells” value with HCT116^−/− cells [3] is “much less effective”. In addition, the EC90 with H1299 cells was 173 µM; in the data set with H460 cells [5] (setting [7]) it was 26.5 µM; in the data set on H460 cells [5] (calculated from EC50 and Hill slope (GraphPad web calculator)), 20 to 30 µM; in the data set with HCT116^+/+ cells (setting [8]), 29.7 µM; in the data set on HCT116^+/+ cells (calculated from EC50 and Hill slope), 20 to 30 µM; in the data set on HCT116^−/− cells [6], over 1000 µM. Moreover, the “effect on p53-null H1299 cells compared with p53-containing cells” value in the data set on H1299 cells was “much less effective”. The “EC90 fold lower than that for INZ, H460” value with H460 cells [5] (statement covers H460 and HCT116^+/+ together) came to 1.5 fold. The “p53 induction / activation by synthetic analogs” value in [2] is given as “significant effect on p53 induction compared to INZ at 0.5 µM”.
For the molecule `CCC(Sc1nnc2c3ccccc3n(C(=O)CCCCC3CC4NC(=O)NC4S3)c2n1)C(=O)N1c2ccccc2Sc2ccccc21` (stereo not drawn) [Compound 20, 5-(5-oxo-5-(3-((1-oxo-1-(10H-phenothiazin-10-yl)butan-2-yl)thio)-5H-[1,2,4]triazino[5,6-b]indol-5-yl)pentyl)tetrahydro-1H-thieno[2,3-d]imidazole-2(5H)-one], the “p53 induction / activation in HCT116^+/+ cells” value in [1] (IB, 18 hrs, 0.5, 2, 10 µM, p53 acetylation (lys382), p53 level, MDM2) is “as effective as INZ”. The “p53 induction / activation in H460 cells” value in the data set on p53 level in H460 cells (IB, 18 hrs, 0.5, 2, 10 µM) is recorded as “as effective as INZ”. The EC50 came to 2.9 ± 0.2 µM with H460 cells [4] and 2.5 ± 0.6 µM with HCT116^+/+ cells (Homo sapiens). Moreover, the figures for the EC90 in the data set with H460 cells [5] (setting [7]) and with HCT116^+/+ cells (setting [8]) were 7.5 µM and 18.3 µM, respectively.
On to `CCC(Sc1nnc2c(n1)[nH]c1ccccc12)C(=O)N1c2ccccc2Sc2ccc(Cl)cc21` (stereo not drawn) [Compound 6, 2-((5H-[1,2,4]triazino[5,6-b]indol-3-yl)thio)-1-(2-chloro-10H-phenothiazin-10-yl)butan-1-one], for which the “p53 induction in HCT116^+/+ cells” value in [1] was under 50%. Besides, in the data set with p53 level in H460 cells, the “p53 induction in H460 cells” value is listed as under 50%. The “p53 induction / activation by synthetic analogs” value in data set [2] is “remained active in p53 induction”.
Consider `CCC(Sc1nnc2c3ccccc3n(CCO)c2n1)C(=O)N1c2ccccc2Cc2ccccc21` (stereo not drawn) [Compound 37, 1-(acridin-10(9H)-yl)-2-((5-(2-hydroxyethyl)-5H-[1,2,4]triazino[5,6-b]indol-3-yl)thio)butan-1-one], for which the EC50 in the data set with HCT116^−/− cells [3] is 12.8 ± 1.7 µM; with WI-38 cells (Homo sapiens, WI-38, highest concentration tested 50 µM, n.d. = not be able to be determined, read-out: EC50, normal cells WI-38 p53 wild type), over 50 µM; with H1299 cells, 11.2 µM; in the data set with H460 cells [4], 0.7 µM; with HCT116^+/+ cells (Homo sapiens) it was 0.5 µM. In addition, the “effect on p53-null HCT116^−/− cells compared with p53-containing cells” value with HCT116^−/− cells [3] is reported as “much less effect; also recorded: much less effective”. Also, the “toxicity to normal human WI-38 cells” value in the data set on WI-38 cells (normal human fibroblasts, p53-containing) is reported as “no toxicity”. In addition, the EC90 in the data set on H1299 cells was 58.9 µM; in the data set on H460 cells [5] (setting [7]), 3.6 µM; in the data set on HCT116^+/+ cells (setting [8]), 5 µM; in the data set on HCT116^−/− cells [6], 91.7 µM. In addition, in the data set with H1299 cells, the “effect on p53-null H1299 cells compared with p53-containing cells” value is “much less effect; also recorded: much less effective”. Besides, in the data set on H1299 cells (p53-null H1299 vs p53-containing H460), the “EC50 on H1299 fold higher than on H460 cells” value is 3–15 fold. Also, the “fold higher potency than INZ in growth inhibition of H460 cells” value with H460 cells [4] (EC50 compared with INZ) is 10 fold and 5- to 10 fold. Further, the “p53 induction / activation by synthetic analogs” value in [2] is recorded as “much better potency than INZ; also recorded: more potent in p53 activation than their parental compound INZ”. Further, the “fold higher potency than INZ in growth inhibition of HCT116^+/+ cells” value with HCT116^+/+ cells (EC50 compared with INZ) was 5 fold and 5- to 10 fold.

(Values after PMC3480348, “Structure and Activity Analysis of Inauhzin Analogs as Novel Antitumor Compounds That Induce p53 and Inhibit Cell Growth” (PLoS ONE, 2012).)
